Legend:
Assay type in all cases: cell-based
[1] = tested on: Tacaribe virus (strain TRVL-11573)
[2] = tested on: Rift Valley fever virus (strain MP-12)
[3] = tested on: SARS corona virus (strain Urbani)
[4] = tested on: Polio virus (strain Type 3, WM-3)

Row | Compound | activity against Takaribe virus (in words) [1] | activity against Rift valley fever virus (in words) [2] | activity against Sars corona virus (in words) [3] | antiviral activity against Polio virus (in words) [4]
1 | C[C@]12CC[C@H](OC(=O)Cc3ccccc3)C[C@@H]1CC[C@@H]1[C@@H]2CC[C@]2(C)C(=NNC(=O)c3cccnc3)CC[C@@H]12 [Compound 5, 3 β-Phenylacetoxy-5α-androstan-17-one Nicotinoylhydrazone] | weak activity | weakly active | weakly active | moderate
2 | C[C@]12CC[C@H](OC(=O)Cc3ccccc3)C[C@@H]1CC[C@@H]1[C@@H]2CC[C@]2(C)C(=NNC(=O)c3cccc([N+](=O)[O-])c3)CC[C@@H]12 [Compound 4, 3 β -Phenylacetoxy-5α-androstan-17-one m-nitrobenzoylhydrazone] | – | – | weakly active | high
3 | CC(=NNc1ccc([N+](=O)[O-])cc1)C1=CC[C@H]2[C@@H]3CC[C@H]4C[C@@H](O)CC[C@]4(C)[C@H]3CC[C@]12C [Compound 12, 5′-preg-16-en-3β-ol-20-one p-nitrophenylhydrazone] | – | weakly active | – | moderate
